The source of these data is patent US20240228555A9, “ANTIMICROBIAL PEPTIDOMIMETICS” (Basilea Pharmaceutica International AG, Allschwil, priority 2020, published 2024).

The subject of data set [1] is Klebsiella pneumoniae SSI3010. The method, boiled down:
(§1)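 Peptides were made up as 1 mg/mL stocks in sterile water. Colonies in 0.85% saline were set to 0.5 McFarland, then diluted in cation-adjusted Mueller-Hinton II broth to about 5×10^5 CFU/mL. Inoculum was combined with two-fold serial peptide dilutions in water containing 0.002% (final) polysorbate 80.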

Data set [2] concerns Escherichia coli MCR-1 Af 45. The conditions noted are these: Mueller-Hinton broth II, no visible growth after 18-20 hours at 35° C. The essentials: as §1
For data set [3], the system named is Escherichia coli ATCC 25922. The method, boiled down: as §1
Data set [4] relates to human red blood cells (hRBC). The format is cell-based. The method, boiled down: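 Percent lysis was derived from supernatant absorbance at 540 nm relative to full lysis by 2.5% Triton X-100 (PBS defines 0%). Compounds, 200 μg/mL, were exposed for 1 h at 37° C to a 20% (v/v) suspension of washed human red cells.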
[5] abbreviates: red cells of human, 1 h, 0.2 g/L.
The mark [6] stands for this setting: Mueller-Hinton broth II, no visible growth after 18-20 hours at 35° C.

Where two headings read alike, the source gives them in different places. Where a SMILES comes first, the peptide text is derived from it. Where no end group is shown, it is not given here. [ ]: non-standard residue; d: D form. Hyp = O=C(O)[C@@H]1C[C@@H](O)CN1; Pen = CC(C)(S)[C@H](N)C(=O)O; dDab = NCC[C@@H](N)C(=O)O; Dab = NCC[C@H](N)C(=O)O

For the molecule `CC[C@H](C)[C@@H]1NC(=O)[C@@H](NC(=O)[C@H](Cc2ccc(O)cc2)NC(=O)[C@@H](NC(=O)[C@@H](NC(=O)[C@@H]2C[C@@H](O)CN2C(=O)[C@@H](N)C(C)C)[C@@H](C)CC)[C@@H](C)O)C(C)(C)SSC[C@@H](C(=O)N[C@@H](CCN)C(=O)N[C@@H](CCCNC(C)C)C(=O)N[C@@H](Cc2ccc(O)cc2)C(=O)O)NC(=O)[C@H](CCCCN)NC(=O)[C@@H](CCN)NC(=O)[C@H]([C@@H](C)O)NC(=O)[C@H](CCN)NC(=O)[C@H](CCCNC(=N)N)NC1=O` [Example 137, Hyp-Ile-Thr-Tyr-Pen-Ile-Arg-Dab-Thr-^DDab-Lys-Cys-Dab-Orn(iPr)-Tyr] (HELM PEPTIDE1{V.[Hyp].I.T.Y.[Pen].I.R.[Dab].T.[NCC[C@@H](N[*:1])C(=O)[*:2]].K.C.[Dab].[CC(C)NCCC[C@H](N[*:1])C(=O)[*:2]].Y}$PEPTIDE1,PEPTIDE1,6:R3-13:R3$$$V2.0), in data set [1] (SSI3010), the “Klebsiella pneumoniae SSI3010 MIC” value stood at 0.25 µg/mL. The “Escherichia coli MCR-1 Af 45 MIC” value in data set [2] turned out to be 0.125 µg/mL. For the same molecule, the “Escherichia coli ATCC 25922 MIC” value in data set [3] (ATCC 25922) amounted to 0.125 µg/mL. The “Hemolysis at 0.2 g/L” value in data set [4] (setting [5]) is less than 1%.
As for `CC[C@H](C)[C@H](NC(=O)[C@@H]1C[C@@H](O)CN1C(=O)[C@@H](N)C(C)C)C(=O)N[C@H](C(=O)N[C@@H](Cc1ccc(O)cc1)C(=O)N[C@@H]1C(=O)N[C@@H](CC(N)=O)C(=O)N[C@@H](CCCNC(=N)N)C(=O)N[C@@H](CCN)C(=O)N[C@@H]([C@@H](C)O)C(=O)N[C@H](CCNC(C)C)C(=O)N[C@@H](CCCCN)C(=O)N[C@H](C(=O)N[C@@H](CCN)C(=O)N[C@@H](CCCNC(=N)N)C(=O)N[C@@H](Cc2ccc(O)cc2)C(=O)O)CSSC1(C)C)[C@@H](C)O` [Example 138, Hyp-Ile-Thr-Tyr-Pen-Asn-Arg-Dab-Thr-^DDab(iPr)-Lys-Cys-Dab-Arg-Tyr] (HELM PEPTIDE1{V.[Hyp].I.T.Y.[Pen].N.R.[Dab].T.[CC(C)NCC[C@@H](N[*:1])C(=O)[*:2]].K.C.[Dab].R.Y}$PEPTIDE1,PEPTIDE1,6:R3-13:R3$$$V2.0), the “Klebsiella pneumoniae SSI3010 MIC” value in data set [1] (SSI3010) worked out at 0.5 µg/mL. In addition, in data set [2], the “Escherichia coli MCR-1 Af 45 MIC” value turned out to be 0.125 µg/mL. For the same molecule, in data set [3] (ATCC 25922), the “Escherichia coli ATCC 25922 MIC” value was 0.125 µg/mL. Moreover, the “Hemolysis at 0.2 g/L” value in data set [4] (setting [5]) is listed as less than 1%.
Regarding “V[Hyp]ITY[Pen]NR[Dab]T[dDab]NC[Dab]RY (cysteine pairing not given here) [Example 40]”, the “Klebsiella pneumoniae SSI3010 MIC” value in data set [1] (setting [6]) is 0.5 µg/mL. Besides, the “Escherichia coli MCR-1 Af 45 MIC” value in data set [2] amounted to 0.25 µg/mL. Besides, in data set [3] (setting [6]), the “Escherichia coli ATCC 25922 MIC” value worked out at 0.25 µg/mL. The “Hemolysis at 0.2 g/L” value in data set [4] came out at 0%.
As for “Val-NalloThr-Ile-Thr-Tyr-Pen-Asn-Arg-Dab-Thr-^DDab-Lys-Cys-Dab-Arg-Tyr [Example 133]”, the “Klebsiella pneumoniae SSI3010 MIC” value in data set [1] (setting [6]) worked out at 0.5 µg/mL. Further, in data set [2], the “Escherichia coli MCR-1 Af 45 MIC” value was 0.25 µg/mL. In addition, the “Escherichia coli ATCC 25922 MIC” value in data set [3] (setting [6]) is 0.25 µg/mL. For the same molecule, the “Hemolysis at 0.2 g/L” value in data set [4] is given as less than 1%.
